We go through 26 compounds from US9663508B2, “Biaryl acyl-sulfonamide compounds as sodium channel inhibitors” (AMGEN INC., priority 2013, dated 2017).

For series [1], the target named is human Nav 1.5 (Homo sapiens (Human), UniProt Q14524). As to the kind of experiment: Nav 1.5 IonWorks Quattro (IWQ) in vitro assay. The series is classed as cell-based.
The target of series [2] is human Nav1.7 (Homo sapiens (Human), UniProt Q15858). The series can be described thus: Nav 1.7 in vitro PatchXpress (PX) assay. It is filed as cell-based.
Chain of human Nav1.7 (Q15858 whole entry): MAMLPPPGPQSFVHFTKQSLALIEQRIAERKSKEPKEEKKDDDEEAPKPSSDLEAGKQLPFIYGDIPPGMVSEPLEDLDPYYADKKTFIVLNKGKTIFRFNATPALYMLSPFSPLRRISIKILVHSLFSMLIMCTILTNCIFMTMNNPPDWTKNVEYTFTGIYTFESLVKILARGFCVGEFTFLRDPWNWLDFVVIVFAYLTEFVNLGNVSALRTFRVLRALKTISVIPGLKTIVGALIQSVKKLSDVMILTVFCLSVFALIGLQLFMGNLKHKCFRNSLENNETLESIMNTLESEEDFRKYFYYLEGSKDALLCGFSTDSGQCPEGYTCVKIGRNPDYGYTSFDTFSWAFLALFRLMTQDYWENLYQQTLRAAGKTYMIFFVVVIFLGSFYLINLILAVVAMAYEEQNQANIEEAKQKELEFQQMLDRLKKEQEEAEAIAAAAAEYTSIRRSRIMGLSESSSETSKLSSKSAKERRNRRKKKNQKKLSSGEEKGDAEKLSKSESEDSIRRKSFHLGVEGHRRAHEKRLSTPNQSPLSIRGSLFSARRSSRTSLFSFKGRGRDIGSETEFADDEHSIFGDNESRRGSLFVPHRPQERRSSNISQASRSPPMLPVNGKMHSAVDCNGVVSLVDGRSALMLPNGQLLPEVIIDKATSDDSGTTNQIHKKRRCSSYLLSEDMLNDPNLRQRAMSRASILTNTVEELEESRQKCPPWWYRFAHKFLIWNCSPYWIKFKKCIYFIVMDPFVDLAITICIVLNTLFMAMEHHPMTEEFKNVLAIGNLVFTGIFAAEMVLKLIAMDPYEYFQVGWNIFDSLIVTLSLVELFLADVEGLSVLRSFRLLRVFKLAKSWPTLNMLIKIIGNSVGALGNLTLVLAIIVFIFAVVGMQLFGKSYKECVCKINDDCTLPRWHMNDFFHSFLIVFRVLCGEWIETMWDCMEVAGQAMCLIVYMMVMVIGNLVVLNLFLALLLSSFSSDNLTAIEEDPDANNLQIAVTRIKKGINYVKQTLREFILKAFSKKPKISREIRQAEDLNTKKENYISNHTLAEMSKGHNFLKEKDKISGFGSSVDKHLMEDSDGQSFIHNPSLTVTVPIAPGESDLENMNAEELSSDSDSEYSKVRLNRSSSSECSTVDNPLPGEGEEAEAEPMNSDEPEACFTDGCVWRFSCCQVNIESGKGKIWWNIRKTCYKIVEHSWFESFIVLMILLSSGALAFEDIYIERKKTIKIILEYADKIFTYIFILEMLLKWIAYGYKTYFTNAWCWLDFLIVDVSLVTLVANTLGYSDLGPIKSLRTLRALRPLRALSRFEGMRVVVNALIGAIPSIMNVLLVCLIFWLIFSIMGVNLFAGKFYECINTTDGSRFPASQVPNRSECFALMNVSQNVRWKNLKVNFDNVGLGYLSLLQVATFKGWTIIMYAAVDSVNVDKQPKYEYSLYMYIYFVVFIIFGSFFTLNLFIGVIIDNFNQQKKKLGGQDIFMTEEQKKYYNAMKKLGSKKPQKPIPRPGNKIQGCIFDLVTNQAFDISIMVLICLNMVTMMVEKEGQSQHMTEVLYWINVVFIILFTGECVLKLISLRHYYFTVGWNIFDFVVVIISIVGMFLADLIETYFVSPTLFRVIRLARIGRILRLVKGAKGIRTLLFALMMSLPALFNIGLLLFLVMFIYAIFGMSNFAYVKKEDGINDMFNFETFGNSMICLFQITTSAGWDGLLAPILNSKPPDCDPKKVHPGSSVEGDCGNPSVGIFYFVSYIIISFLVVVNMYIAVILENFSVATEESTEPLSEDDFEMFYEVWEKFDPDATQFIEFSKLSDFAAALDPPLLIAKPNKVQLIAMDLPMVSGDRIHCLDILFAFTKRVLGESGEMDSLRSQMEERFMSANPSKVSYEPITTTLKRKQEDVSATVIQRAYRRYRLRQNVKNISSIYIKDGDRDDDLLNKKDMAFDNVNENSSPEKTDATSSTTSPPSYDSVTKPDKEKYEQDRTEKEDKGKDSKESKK
[3] abbreviates: in-vitro Nav 1.5 IWQ data, read-out: NAV 1.5 IWQ (IC50).

Each structure is given as a SMILES string. Read-outs that look alike come from different tables or passages of the source.

Chain of human Nav 1.5 (Q14524 whole entry): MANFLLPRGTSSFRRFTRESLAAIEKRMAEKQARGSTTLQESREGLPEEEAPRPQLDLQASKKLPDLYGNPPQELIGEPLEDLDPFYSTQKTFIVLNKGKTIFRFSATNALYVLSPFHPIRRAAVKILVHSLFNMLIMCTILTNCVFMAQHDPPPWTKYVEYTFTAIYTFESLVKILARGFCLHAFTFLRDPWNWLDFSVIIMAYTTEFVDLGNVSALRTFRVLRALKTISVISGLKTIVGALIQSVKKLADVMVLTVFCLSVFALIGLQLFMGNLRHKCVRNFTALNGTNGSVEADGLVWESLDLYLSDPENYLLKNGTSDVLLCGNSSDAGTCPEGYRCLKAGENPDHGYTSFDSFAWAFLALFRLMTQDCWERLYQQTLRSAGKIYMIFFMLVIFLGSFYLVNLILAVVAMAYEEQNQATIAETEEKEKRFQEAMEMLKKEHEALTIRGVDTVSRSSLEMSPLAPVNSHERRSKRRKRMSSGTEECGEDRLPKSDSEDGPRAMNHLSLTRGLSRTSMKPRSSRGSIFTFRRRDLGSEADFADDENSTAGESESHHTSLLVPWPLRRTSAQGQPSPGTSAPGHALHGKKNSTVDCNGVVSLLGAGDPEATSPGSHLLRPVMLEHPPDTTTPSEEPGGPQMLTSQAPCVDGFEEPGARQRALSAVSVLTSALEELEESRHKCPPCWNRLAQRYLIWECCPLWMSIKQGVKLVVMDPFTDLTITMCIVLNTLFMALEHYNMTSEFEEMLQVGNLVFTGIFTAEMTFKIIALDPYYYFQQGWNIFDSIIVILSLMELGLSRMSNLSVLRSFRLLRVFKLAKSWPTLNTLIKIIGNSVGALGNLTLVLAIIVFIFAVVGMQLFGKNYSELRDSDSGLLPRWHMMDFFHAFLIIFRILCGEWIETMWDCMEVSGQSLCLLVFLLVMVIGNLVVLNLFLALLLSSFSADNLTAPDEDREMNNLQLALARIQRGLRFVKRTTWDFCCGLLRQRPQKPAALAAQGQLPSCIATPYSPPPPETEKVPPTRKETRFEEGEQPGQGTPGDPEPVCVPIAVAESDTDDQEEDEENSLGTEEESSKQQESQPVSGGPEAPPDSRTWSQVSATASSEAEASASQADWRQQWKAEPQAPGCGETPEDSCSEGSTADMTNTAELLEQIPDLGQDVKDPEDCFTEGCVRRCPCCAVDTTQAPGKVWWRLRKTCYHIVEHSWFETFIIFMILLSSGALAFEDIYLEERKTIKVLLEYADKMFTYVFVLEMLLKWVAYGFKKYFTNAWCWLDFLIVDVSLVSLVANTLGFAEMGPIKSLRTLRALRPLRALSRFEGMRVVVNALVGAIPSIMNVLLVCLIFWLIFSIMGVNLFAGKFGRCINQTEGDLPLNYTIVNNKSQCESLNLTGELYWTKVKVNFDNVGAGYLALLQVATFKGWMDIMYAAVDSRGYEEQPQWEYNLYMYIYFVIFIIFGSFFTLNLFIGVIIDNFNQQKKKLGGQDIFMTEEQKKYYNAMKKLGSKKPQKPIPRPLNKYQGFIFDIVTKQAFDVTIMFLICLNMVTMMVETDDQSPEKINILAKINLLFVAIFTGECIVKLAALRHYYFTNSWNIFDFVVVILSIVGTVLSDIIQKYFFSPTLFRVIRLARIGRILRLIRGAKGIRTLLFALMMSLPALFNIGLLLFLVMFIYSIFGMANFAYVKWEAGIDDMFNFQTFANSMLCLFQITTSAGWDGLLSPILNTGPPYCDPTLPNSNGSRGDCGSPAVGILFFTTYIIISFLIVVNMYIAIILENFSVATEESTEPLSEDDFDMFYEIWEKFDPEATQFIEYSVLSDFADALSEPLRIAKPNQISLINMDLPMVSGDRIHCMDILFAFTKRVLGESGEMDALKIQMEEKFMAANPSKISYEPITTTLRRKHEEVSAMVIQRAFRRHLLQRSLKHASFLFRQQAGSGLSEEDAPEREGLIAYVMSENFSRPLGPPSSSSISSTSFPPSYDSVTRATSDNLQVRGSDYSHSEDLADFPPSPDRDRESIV

As to `Cc1cc(C(=O)NS(C)(=O)=O)c(F)cc1-c1cnc(Oc2c(C)ccc3ccccc23)c(Cl)c1` [Example 608, 4-(5-chloro-6-((2-methyl-1-naphthalenyl)oxy)-3-pyridinyl)-2-fluoro-5-methyl-N-(methylsulfonyl)benzamide], the IC50 in series [1] (read-out: NAV 1.5 IWQ IC50) is greater than 3 µM; in series [2], 0.0481 µM.
For the compound `Cc1cc(C(=O)NS(C)(=O)=O)c(F)cc1-c1cnc(Oc2ccc(C(C)(C)C)cc2Cl)c(Cl)c1` [Example 611, 4-(6-(4-tert-butyl-2-chlorophenoxy)-5-chloro-3-pyridinyl)-2-fluoro-5-methyl-N-(methylsulfonyl)benzamide], the IC50 was greater than 3 µM in series [1] (read-out: NAV 1.5 IWQ IC50) and 0.0761 µM in series [2].
Turning to `Cc1cc(C(=O)NS(C)(=O)=O)c(F)cc1-c1cnc(Oc2cc(Cl)c(Cl)cc2Cl)c(Cl)c1` [Example 667, 4-(5-chloro-6-(2,4,5-trichlorophenoxy)-3-pyridinyl)-2-fluoro-5-methyl-N-(methylsulfonyl)benzamide], the IC50 in series [1] (read-out: NAV 1.5 IWQ IC50) was 7.45 µM; in series [2], 0.0505 µM.
In the case of `Cc1cc(C(=O)NS(C)(=O)=O)c(F)cc1-c1cnc(Oc2ccc(Cl)c3ccccc23)c(Cl)c1` [Example 613, 4-(5-chloro-6-((4-chloro-1-naphthalenyl)oxy)-3-pyridinyl)-2-fluoro-5-methyl-N-(methylsulfonyl)benzamide], the concentration for half-maximal inhibition (IC50) in series [1] (read-out: NAV 1.5 IWQ IC50) is greater than 3 µM; in series [2], 0.0927 µM.
`CS(=O)(=O)NC(=O)c1cc(Cl)c(-c2cnc(Oc3cc(F)ccc3Cl)c(Cl)c2)cc1F` [Example 595, 5-chloro-4-(5-chloro-6-(2-chloro-5-fluorophenoxy)-3-pyridinyl)-2-fluoro-N-(methylsulfonyl)benzamide]: the IC50 in series [1] (read-out: NAV 1.5 IWQ IC50) was greater than 3 µM; in series [2] it was 0.0814 µM.
Consider `Cc1cc(Cl)cc(Cl)c1Oc1ncc(-c2ccc(C(=O)NS(C)(=O)=O)cc2OC(F)F)cc1Cl` [Example 585, 4-(5-chloro-6-(2,4-dichloro-6-methylphenoxy)-3-pyridinyl)-3-(difluoromethoxy)-N-(methylsulfonyl)benzamide], for which the IC50 in series [1] (read-out: NAV 1.5 IWQ IC50) was 0.289 µM; in series [2] it was 0.0472 µM.
With `Cc1ccc([C@H]2CCCN2c2ncc(-c3cc(F)c(C(=O)NS(C)(=O)=O)cc3C)cc2Cl)cc1` [Example 657, 4-(5-chloro-6-((2R)-2-(4-methylphenyl)-1-pyrrolidinyl)-3-pyridinyl)-2-fluoro-5-methyl-N-(methylsulfonyl)benzamide, 4-(5-chloro-6-((2S)-2-(4-methylphenyl)-1-pyrrolidinyl)-3-pyridinyl)-2-fluoro-5-methyl-N-(methylsulfonyl)benzamide], the IC50 in series [1] (read-out: NAV 1.5 IWQ IC50) was greater than 3 µM; in series [2], 0.0929 µM.
With `CCS(=O)(=O)NC(=O)c1ccc(-c2cnc(Oc3c(C)cc(Cl)cc3Cl)c(Cl)c2)c(OC)c1` [Example 788, 4-(5-chloro-6-(2,4-dichloro-6-methylphenoxy)-3-pyridinyl)-N-(ethylsulfonyl)-3-methoxybenzamide], the IC50 turned out to be 1.38 µM in series [1] (setting [3]) and 0.0248 µM in series [2] (in-vitro Nav 1.7 PX data).
The corresponding values for `CNS(=O)(=O)NC(=O)c1ccc(-c2cnc(Oc3cc(Cl)cc(Cl)c3)c(Cl)c2)c(OC)c1` [Example 772, 4-(5-Chloro-6-(3,5-Dichlorophenoxy)Pyridin-3-yl)-3-Methoxy-N—(N-Methylsulfamoyl)Benzamide] are greater than 3 µM and 0.0807 µM.
For `Cc1cc(C(=O)NS(C)(=O)=O)c(F)cc1-c1cnc(Oc2cc(F)ccc2F)c(Cl)c1` [Example 605, 4-(5-chloro-6-(2,5-difluorophenoxy)-3-pyridinyl)-2-fluoro-5-methyl-N-(methylsulfonyl)benzamide], the IC50 was greater than 3 µM in series [1] (read-out: NAV 1.5 IWQ IC50) and 0.0455 µM in series [2].
The matching figures for `Cc1cc(Br)ccc1Oc1ncc(-c2cc(F)c(C(=O)NS(C)(=O)=O)cc2C)cc1Cl` [Example 614, 4-(6-(4-bromo-2-methylphenoxy)-5-chloro-3-pyridinyl)-2-fluoro-5-methyl-N-(methylsulfonyl)benzamide]: greater than 3 µM and 0.068 µM.
The corresponding values for `CS(=O)(=O)NC(=O)c1cc(Cl)c(-c2cnc(Oc3cc(F)cc(F)c3Cl)c(Cl)c2)cc1F` [Example 599, 5-chloro-4-(5-chloro-6-(2-chloro-3,5-difluorophenoxy)-3-pyridinyl)-2-fluoro-N-(methylsulfonyl)benzamide] are greater than 3 µM and 0.0627 µM.
With `CCS(=O)(=O)NC(=O)c1cc(C)c(-c2cnc(Oc3c(C)cc(Cl)cc3Cl)c(Cl)c2)cc1F` [Example 800, 4-(5-chloro-6-(2,4-dichloro-6-methylphenoxy)-3-pyridinyl)-N-(ethylsulfonyl)-2-fluoro-5-methylbenzamide], the IC50 was determined as 1.25 µM in series [1] (setting [3]) and 0.096 µM in series [2] (in-vitro Nav 1.7 PX data).
Take `CC[C@@H](Oc1ncc(-c2cc(F)c(C(=O)NS(C)(=O)=O)cc2C)cc1Cl)c1ccc(Cl)cc1` [Example 640, 4-(5-chloro-6-(((1R)-1-(4-chlorophenyl)propyl)oxy)-3-pyridinyl)-2-fluoro-5-methyl-N-(methylsulfonyl)benzamide, 4-(5-chloro-6-(((1S)-1-(4-chlorophenyl)propyl)oxy)-3-pyridinyl)-2-fluoro-5-methyl-N-(methylsulfonyl)benzamide]: the IC50 is greater than 3 µM in series [1] (read-out: NAV 1.5 IWQ IC50) and 0.0908 µM in series [2].
The matching figures for `Cc1cc(C(=O)NS(C)(=O)=O)c(F)cc1-c1cnc(N2CCC[C@@H]2c2ccc(Cl)c(Cl)c2)c(Cl)c1` [Example 658, 4-(5-chloro-6-((2R)-2-(3,4-dichlorophenyl)-1-pyrrolidinyl)-3-pyridinyl)-2-fluoro-5-methyl-N-(methylsulfonyl)benzamide, 4-(5-chloro-6-((2S)-2-(3,4-dichlorophenyl)-1-pyrrolidinyl)-3-pyridinyl)-2-fluoro-5-methyl-N-(methylsulfonyl)benzamide]: greater than 3 µM and 0.0899 µM.
Regarding `Cc1cc(C(=O)NS(C)(=O)=O)ccc1-c1cnc(Oc2c(C)cc(Cl)cc2Cl)c(Cl)c1` [Example 775, 4-(5-Chloro-6-(2,4-Dichloro-6-Methylphenoxy)-3-Pyridinyl)-3-Methyl-N-(Methyl Sulfonyl)Benzamide], the values for the IC50 in series [1] (setting [3]) and in series [2] (in-vitro Nav 1.7 PX data) were greater than 4.9 µM and 0.0782 µM, respectively.
In the case of `Cc1cc(C(=O)NS(C)(=O)=O)c(F)cc1-c1cnc(Oc2c(C)cc(Cl)cc2C)c(Cl)c1` [Example 669, 4-(5-chloro-6-(4-chloro-2,6-dimethylphenoxy)-3-pyridinyl)-2-fluoro-5-methyl-N-(methylsulfonyl)benzamide], the half-inhibitory concentration (IC50) turned out to be 3.61 µM in series [1] (read-out: NAV 1.5 IWQ IC50) and 0.066 µM in series [2].
The corresponding values for `Cc1cc(C(=O)NS(C)(=O)=O)c(F)cc1-c1cnc(Oc2c(C)cccc2C(C)(C)C)c(Cl)c1` [Example 633, 4-(6-(2-tert-butyl-6-methylphenoxy)-5-chloro-3-pyridinyl)-2-fluoro-5-methyl-N-(methylsulfonyl)benzamide] are greater than 3 µM and 0.0833 µM.
As for `Cc1cc(C(=O)NS(C)(=O)=O)c(F)cc1-c1cnc(Oc2ccc(F)c(F)c2F)c(Cl)c1` [Example 615, 4-(5-chloro-6-(2,3,4-trifluorophenoxy)-3-pyridinyl)-2-fluoro-5-methyl-N-(methylsulfonyl)benzamide], the IC50 was greater than 3 µM in series [1] (read-out: NAV 1.5 IWQ IC50) and 0.0752 µM in series [2].
In the case of `Cc1cc(Cl)ccc1Oc1ncc(-c2cc(F)c(C(=O)NS(C)(=O)=O)cc2C)cc1Cl` [Example 620, 4-(5-chloro-6-(4-chloro-2-methylphenoxy)-3-pyridinyl)-2-fluoro-5-methyl-N-(methylsulfonyl)benzamide], the IC50 was greater than 3 µM in series [1] (read-out: NAV 1.5 IWQ IC50) and 0.0761 µM in series [2].
Take `Cc1cc(C(=O)NS(C)(=O)=O)c(F)cc1-c1cnc(OCCC(C)C)c(Cl)c1` [Example 637, 4-(5-chloro-6-(3-methylbutoxy)-3-pyridinyl)-2-fluoro-5-methyl-N-(methylsulfonyl)benzamide]: the IC50 is greater than 3 µM in series [1] (read-out: NAV 1.5 IWQ IC50) and 0.0877 µM in series [2].
The corresponding values for `Cc1ccc(Oc2ncc(-c3cc(F)c(C(=O)NS(C)(=O)=O)cc3Cl)cc2Cl)cc1F` [Example 591, 5-chloro-4-(5-chloro-6-(3-fluoro-4-methylphenoxy)-3-pyridinyl)-2-fluoro-N-(methylsulfonyl)benzamide] are greater than 3 µM and 0.0856 µM.
The matching figures for `Cc1cc(C(=O)NS(C)(=O)=O)c(F)cc1-c1cnc(O[C@@H](C)c2cc(Cl)ccc2Cl)c(Cl)c1` [Example 674, 4-(5-chloro-6-((1S)-1-(2,5-dichlorophenyl)ethoxy)-3-pyridinyl)-2-fluoro-5-methyl-N-(methylsulfonyl)benzamide]: 4.86 µM and 0.0834 µM.
The corresponding values for `Cc1cc(C(=O)NS(C)(=O)=O)c(F)cc1-c1cnc(Oc2ccc(C)c3c2CCC3)c(Cl)c1` [Example 662, 4-(5-chloro-6-((7-methyl-2,3-dihydro-1H-inden-4-yl)oxy)-3-pyridinyl)-2-fluoro-5-methyl-N-(methylsulfonyl)benzamide] are 3.77 µM and 0.0882 µM.
For `Cc1cc(C(=O)NS(C)(=O)=O)c(F)cc1-c1cnc(Oc2cc(F)cc(F)c2)c(Cl)c1` [Example 630, 4-(5-chloro-6-(3,5-difluorophenoxy)-3-pyridinyl)-2-fluoro-5-methyl-N-(methylsulfonyl)benzamide], the IC50 is greater than 3 µM in series [1] (read-out: NAV 1.5 IWQ IC50) and 0.0778 µM in series [2].
With `Cc1cc(C(=O)NS(C)(=O)=O)c(F)cc1-c1cnc(N2CCC[C@@H]2c2cccc(Cl)c2)c(Cl)c1` [Example 656, 4-(5-chloro-6-((2R)-2-(3-chlorophenyl)-1-pyrrolidinyl)-3-pyridinyl)-2-fluoro-5-methyl-N-(methylsulfonyl)benzamide, 4-(5-chloro-6-((2S)-2-(3-chlorophenyl)-1-pyrrolidinyl)-3-pyridinyl)-2-fluoro-5-methyl-N-(methylsulfonyl)benzamide], the results for the half-inhibitory concentration (IC50) in series [1] (read-out: NAV 1.5 IWQ IC50) and in series [2] were greater than 3 µM and 0.0738 µM, respectively.
